# How the values were obtained:
# Mcl-1 = assay: Western blotting, semiquantitative analysis of Mcl-1 protein bands; format: cell-based; conditions: control = 1, tumor cells
# Description: (§1) The interest protein was detected by the corresponding antibody. The expression of the interest protein in the cells was detected by horseradish peroxidase-labeled secondary antibodies in combination with ECL coloration method. […] The concentration of the protein bands in the Western images were carried out semiquantitative analysis and normalization treatment with KODAK Gel Logic 1500 imaging system software.
# MCF-7 cells = assay: Cytotoxicity by MTT, cells without plasmid transfection; format: cell-based; conditions: Homo sapiens, MCF7; MCF-7, MTT, 48 hours; read-out: IC50 value in untransfected cells
# In short: (§2)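 MCF-7 cells transfected with 3 μg BAX/BAK interfering plasmid by calcium phosphate, knockdown checked by Western; untransfected cells run in parallel. Cells treated with a compound concentration gradient for 48 hours; viability by MTT, IC50 derived.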
# [1] = test system: MCF-7 cells transfected with BAX/BAK interfering plasmid; assay: Cytotoxicity by MTT, cells transfected with BAX/BAK interfering plasmid; format: cell-based; conditions: Homo sapiens, MCF7; MCF-7 with BAX/BAK interfering plasmid, MTT, 48 hours
# In short: as §2
# [2] = test system: BAX shift towards the chondriosome; assay: Co-localization between Bax protein and chondriosome, Bax-YFP in MCF-7 cells; format: cell-based; conditions: for Doses (concentration at which the compound drove the BAX to shift towards the chondriosome): Bax-YFP/Mito Tracker Red; for Time (time period after which BAX shifted towards the chondriosome): at the concentration given
# In short: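 MCF-7 cells transfected with Bax-YFP plasmid; 24 h later treated with 10 μM compound for 6 h, then stained 10 min with 50 nM MitoTracker Red CMXRos. Dual-channel laser confocal imaging; Bax mitochondrial localization read as green/red overlap (orange).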
# Mcl-1 protein = Mcl-1 protein (Homo sapiens, UniProt Q07820); assay: Fluorescence polarization assay, competition with FAM-Bid peptide for Mcl-1; conditions: FAM-Bid 5 nM, 4 hours of incubation, read-out: Mcl-1 binding constants
# Mcl-1 protein, sequence (Q07820 whole entry, species assumed): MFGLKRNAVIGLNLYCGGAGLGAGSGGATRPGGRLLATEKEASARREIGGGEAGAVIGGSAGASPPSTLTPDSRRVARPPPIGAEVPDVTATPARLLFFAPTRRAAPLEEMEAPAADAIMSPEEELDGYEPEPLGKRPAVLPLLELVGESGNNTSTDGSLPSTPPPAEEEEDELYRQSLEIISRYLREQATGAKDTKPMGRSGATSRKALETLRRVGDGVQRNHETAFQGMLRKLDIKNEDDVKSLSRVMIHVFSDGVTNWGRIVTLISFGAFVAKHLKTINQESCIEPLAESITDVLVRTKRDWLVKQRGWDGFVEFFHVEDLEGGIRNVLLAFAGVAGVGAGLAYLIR
# Description: (§3) A Bid BH3 peptide (amino acids: 79-99: […]) having 21 amino acids was synthesized and marked with 6-carboxyfluorescein N-succinimidyl ester (FAM) as fluorescent tag (FAM-Bid) at the N-terminal. The reaction system used in the competitive binding experiment was GST-Bcl-2 protein (40 nM) or Mcl-1 protein, which was dissolved in the reaction buffer (100 mM K3PO4, pH 7.5; 100 μg/ml bovine γ albumin; 0.02% sodium azide) together with FAM-Bid polypeptide (5 nM). In a 96-well plate, 100 µL of the reaction system was added into each well. Then 1 μL different concentration of compound 13 mother solution to be detected dissolved in DMSO was added there into until the final concentration met the experimental design requirements. Meanwhile, two control groups were established, one with the reaction system only containing Bcl-2 or Mcl-1 and FAM-Bid (equivalent to 0% inhibition rate), the other with the reaction system only containing FAM-Bid peptide. After 4 hours of incubation, the 96-well plate was detected by enzyme-labelled meter. The fluorescent polarization value (mP) was tested at […]. Ki value was deduced according to calculation formula.
# (§4) The BH3 analogous degrees of other 12 compounds were detected by using the experimental method as described above.
# GST-Bcl-2 protein = GST-Bcl-2 protein (Homo sapiens, UniProt P10415); assay: Fluorescence polarization assay, competition with FAM-Bid peptide for Bcl-2; conditions: GST-Bcl-2 40 nM, FAM-Bid 5 nM, 4 hours of incubation, read-out: Bcl-2 binding constants
# GST-Bcl-2 protein, sequence (P10415 whole entry): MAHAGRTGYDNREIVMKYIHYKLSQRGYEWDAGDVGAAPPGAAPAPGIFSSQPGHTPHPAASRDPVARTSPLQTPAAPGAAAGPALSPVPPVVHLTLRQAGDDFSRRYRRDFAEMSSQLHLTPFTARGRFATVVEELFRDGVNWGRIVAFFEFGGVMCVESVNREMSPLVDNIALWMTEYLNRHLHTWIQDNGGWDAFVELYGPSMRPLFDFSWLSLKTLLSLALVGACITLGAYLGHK
# Description: as §3, §4
# [3] = biological target: T1, interaction between Bcl-2 and Bax (Homo sapiens, UniProt P10415); assay: Intracellular FRET, Bcl-2-CFP/Bax-YFP in Hela cells; format: cell-based; conditions: for Time (time period after which the interaction between Bcl-2 and Bax was interfered): at the concentration given
# T1 construct: expressed in transfected cells; host or cells: Hela cells
# T1 sequence (P10415 whole entry): as above
# In short: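 Hela cells transfected with Bcl-2-CFP and/or Bax-YFP plasmids, then treated with compound in DMSO at 2, 5, 10 and 15 μM for 24 h, or at 40 μM for 3, 6 and 24 h. FRET taken as the 527/475 nm emission ratio at 433 nm excitation, with singly transfected controls set to 1.0. Viability checked by MTT.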
# Bcl-2 = assay: Western blotting, semiquantitative analysis of Bcl-2 protein bands; format: cell-based; conditions: control = 1, tumor cells
# Description: as §1
SMILES,Ki (Mcl-1 protein) [nM],Ki (GST-Bcl-2 protein) [nM],Doses (concentration at which the compound interfered with the interaction between Bcl-2 and Bax) [3] [µM],Time (time period after which the interaction between Bcl-2 and Bax was interfered) [3] [h],melting point [°C],"concentration of the protein bands (semiquantitative, normalized), Mcl-1 (Mcl-1; 2 h)","concentration of the protein bands (semiquantitative, normalized), Mcl-1 (Mcl-1; 6 h)",IC50 (MCF-7 cells) [nM],IC50 [1] [µM],Doses (concentration at which the compound drove the BAX to shift towards the chondriosome) [2] [µM],Time (time period after which BAX shifted towards the chondriosome) [2] [h],"concentration of the protein bands (semiquantitative, normalized), Bcl-2 (Bcl-2; 6 h)","concentration of the protein bands (semiquantitative, normalized), Bcl-2 (Bcl-2; 12 h)","concentration of the protein bands (semiquantitative, normalized), Bcl-2 (Bcl-2; 18 h)","concentration of the protein bands (semiquantitative, normalized), Bcl-2 (Bcl-2; 24 h)"
"CC(C)c1ccc(Oc2ccc3c4c(cccc24)C2=NC(=O)C(C#N)=C23)cc1 [Compound 17, 3-(4-Isopropyl-phenoxy)-8-oxo-8H-acenaphtho[1,2-b]pyrrole-9-carbonitrile]",85,20,0.1,2,–,0.65,0.37,2000,> 50,1.0,1,0.99,0.99,0.58,0.11
"CCC(C)c1ccc(Sc2ccc3c4c(cccc24)C2=NC(=O)C(C#N)=C23)cc1 (stereo not shown) [Compound 21, 3-(4-sec-Butyl-phenylsulfanyl)-8-oxo-8H-acenaphtho[1,2-b]pyrrole-9-carbonitrile]",65,12,0.2,2,–,0.59,0.28,1500,> 50,2.0,2,0.99,0.99,0.49,0.18
"CC(C)c1ccc(Sc2ccc3cccc4c3c2C2=NC(=O)C(C#N)=C24)cc1 [Compound 22, 6-(4-Isopropyl-phenylsulfanyl)-8-oxo-8H-acenaphtho[1,2-b]pyrrole-9-carbonitrile]",85,9,0.5,2,–,0.68,0.49,1200,> 50,5.0,3,0.99,0.99,0.60,0.37

# Now those with a lower Ki (Mcl-1 protein), led by results:
Ki (Mcl-1 protein) [nM],Ki (GST-Bcl-2 protein) [nM],Doses (concentration at which the compound interfered with the interaction between Bcl-2 and Bax) [3] [µM],Time (time period after which the interaction between Bcl-2 and Bax was interfered) [3] [h],melting point [°C],SMILES,"concentration of the protein bands (semiquantitative, normalized), Mcl-1 (Mcl-1; 2 h)","concentration of the protein bands (semiquantitative, normalized), Mcl-1 (Mcl-1; 6 h)",IC50 (MCF-7 cells) [nM],IC50 [1] [µM],Doses (concentration at which the compound drove the BAX to shift towards the chondriosome) [2] [µM],Time (time period after which BAX shifted towards the chondriosome) [2] [h],"concentration of the protein bands (semiquantitative, normalized), Bcl-2 (Bcl-2; 6 h)","concentration of the protein bands (semiquantitative, normalized), Bcl-2 (Bcl-2; 12 h)","concentration of the protein bands (semiquantitative, normalized), Bcl-2 (Bcl-2; 18 h)","concentration of the protein bands (semiquantitative, normalized), Bcl-2 (Bcl-2; 24 h)"
24,158,0.5,4,278 to 279,"CCC(C)c1ccc(Oc2ccc3c4c(cccc24)C2=NC(=O)C(C#N)=C23)cc1 (stereo not shown) [Compound 13, 3-(4-sec-Butyl-phenoxy)-8-oxo-8H-acenaphtho[1,2-b]pyrrole-9-carbonitrile]",0.79,0.29,7500,> 50,5.0,4,0.99,0.99,0.42,0.14
8,120,0.5,4,–,"CC(C)Cc1ccc(Sc2ccc3c4c(cccc24)C2=NC(=O)C(C#N)=C23)cc1 [Compound 18, 3-(4-Isobutyl-phenylsulfanyl)-8-oxo-8H-acenaphtho[1,2-b]pyrrole-9-carbonitrile]",0.66,0.39,6800,> 50,5.0,4,0.99,0.99,0.36,0.10
57,23,0.2,2,–,"CC(C)c1ccc(Sc2ccc3c4c(cccc24)C2=NC(=O)C(C#N)=C23)cc1 [Compound 20, 3-(4-Isopropyl-phenylsulfanyl)-8-oxo-8H-acenaphtho[1,2-b]pyrrole-9-carbonitrile]",0.60,0.29,2100,> 50,5.0,3,0.99,0.99,0.50,0.23
